From patent EP4768484A1, “HETEROCYCLIC FUSED RING COMPOUND, AND COMPOSITION AND USE THEREOF” (Shenzhen TargetRx, Inc., priority 2023, dated 2025)

Tests used:
Assay type in all cases: cell-based
Ba/F3 parental cells = experiment: Cell growth inhibitory activity assay (CellTiter-Glo), Ba/F3 parental cells; details: Mus musculus, BaF3, 72 h, CTG cell viability, read-out: IC50 Ba/F3 BCR-ABL1 Parental
Description: (§1) In this assay, the Celltiter-Glo (CTG) kit provided by Promega was used, and it is a homogeneous cell viability assay method. The cell viability of cultured cells was measured by quantifying ATP. K562 cells were purchased from Nanjing Kebai, product number CBP60529; Ba/F3 parental cells were purchased from RIKEN BRC, product number RCB0805; other cells containing BCR-ABL1 WT, BCR-ABL1 T315I, BCR-ABL1 T315M, BCR-ABL1 Y253H/E255K, BCR-ABL1 E255V/T3151, BCR-ABL1 A424T, BCR-ABL1 A337V, BCR-ABL1 P465S, BCR-ABL1 V468F, and BCR-ABL1 I502L were all monoclonal engineered cell lines obtained by transducting Ba/F3 parental cells with the lentivirus plasmids containing WT or corresponding mutated BCR-ABL1.
(§2) The steps of cell viability assay are as follows: • a) Cells in logarithmic growth phase were collected. Cell suspension was prepared and the cells were counted. Concentration of the cells was calculated. • b) The cell suspension was diluted to the required concentration and then added to the middle wells of a 96-well plate, and PBS was added to the edge wells. The wells with no cells and only culture medium were used as blank controls. • c) In addition to the cell plate used for compound analysis, another 96-well plate was prepared as a T0 plate, and 3-6 blank wells and 3-6 cell wells were added. The next day, CTG was used to test the cell viability as the T0 viability value of the cells. • d) The cell plate was incubated at 37 °C in a 5% CO2 incubator overnight. • e) The next day, each concentration of a compound subjected to a gradient dilution was added, and the cell plate was incubated at 37 °C in a 5% CO2 incubator for 72 h. The wells with no compound and only 0.5% DMSO were used as positive controls for cell growth. • f) CTG reagent (CellTiter-Glo kit) was added according to the manufacturer's instructions to test the cell viability value. • g) The plate was read using Biotek cytation3.0 microplate reader and the data were exported. • h) IC50 was calculated using GraphPad Prism 7.0 software.
(§3) The IC50 (half-maximal inhibitory concentration) of the compound was obtained using the following nonlinear fitting formula: Y = Bottom + (Top−Bottom)/(1+10^(∧)((LogIC50−X)*HillSlope)) [formula] • X: Log value of the compound concentration • Y: Inhibition rate (% inhibition) • Top: Maximum response • Bottom: Baseline response • HillSlope: Slope of the curve
(§4) The formula for calculating cell inhibition rate (inhibition rate %) was: [formula]

K562 cells = experiment: Cell growth inhibitory activity assay (CellTiter-Glo), K562 cells; details: Homo sapiens, 72 h, CTG cell viability
Description: as §1, §2, §3, §4

Ba/F3 BCR-ABL1 WT = molecular target: T1, Ba/F3 BCR-ABL1 WT (Homo sapiens, UniProt P00519+P11274); experiment: Cell growth inhibitory activity assay (CellTiter-Glo), Ba/F3 BCR-ABL1 WT cells; details: 72 h, CTG cell viability
T1 construct: BCR (N-terminal fusion partner of the oncoprotein); expressed in transfected cells; host or cells: Ba/F3 (lentiviral transduction, monoclonal line)
Description: as §1, §2, §3, §4

Ba/F3 BCR-ABL1 T315I = molecular target: T2, Ba/F3 BCR-ABL1 T315I (Homo sapiens, UniProt P00519+P11274, T315I); experiment: Cell growth inhibitory activity assay (CellTiter-Glo), Ba/F3 BCR-ABL1 T315I cells; details: 72 h, CTG cell viability
T2 construct: BCR (N-terminal fusion partner of the oncoprotein); expressed in transfected cells; host or cells: Ba/F3 (lentiviral transduction, monoclonal line)
Description: as §1, §2, §3, §4

Compound	IC50 (K562 cells) [nM]	IC50 (Ba/F3 parental cells) [nM]	IC50 (Ba/F3 BCR-ABL1 WT) [nM]	IC50 (Ba/F3 BCR-ABL1 T315I) [nM]
CC(C)n1ncc2c1-c1cc(-c3cc(C(=O)Nc4ccc(OC(F)(F)Cl)cc4)cnc3N3CC[C@@H](F)C3)cnc1C2 [T-10-A, (R)-N-(4-(chlorodifluoromethoxy)phenyl)-6-(3-fluoropyrrolidin-1-yl)-5-(1-isopropyl-1,4-dihydropyrazolo[3',4':3,4]cyclopenta[1,2-b]pyridin-7-yl)nicotinamide]	≤ 5	> 1000	5 to 50	5 to 50
CC1(C)C(=O)Nc2cc(C(=O)Nc3ccc(OC(F)(F)Cl)cc3)cc(-c3cnc4c(c3)-c3nn(-c5ncccn5)cc3C4)c21 [T-123, N-(4-(chlorodifluoromethoxy)phenyl)-3,3-dimethyl-2-oxo-4-(2-(pyrimidin-2-yl)-2,4-dihydropyrazolo[3',4':3,4]cyclopenta[1,2-b]pyridin-7-yl)indoline-6-carboxamide]	≤ 5	> 1000	≤ 5	≤ 5
CN1Cc2ncc(-c3cc(C(=O)Nc4ccc(OC(F)(F)Cl)cc4)cc4c3C3(CCCCC3)C(=O)N4)cc2C1=O [T-8, N-(4-(chlorodifluoromethoxy)phenyl)-4'-(6-methyl-5-oxo-6,7-dihydro-5H-pyrrolo[3,4-b]pyridin-3-yl)-2'-oxospiro[cyclohexane-1,3'-indoline]-6'-carboxamide]	≤ 5	> 1000	≤ 5	5 to 50
C[C@@H]1COCc2nc3cc(C(=O)Nc4ccc(OC(F)(F)Cl)cc4)cc(-c4cnc5c(c4)-c4nn(C(=O)C6CC6)cc4C5)c3n21 [T-47, (R)-N-(4-(chlorodifluoromethoxy)phenyl)-6-(2-(cyclopropylcarbonyl)-2,4-dihydropyrazolo[3',4':3,4]cyclopenta[1,2-b]pyridin-7-yl)-4-methyl-3,4-dihydro-1H-benzo[4,5]imidazo[2,1-c][1,4]oxazine-8-carboxamide]	≤ 5	> 1000	≤ 5	≤ 5
N#Cc1ccnc(-n2cc3c(n2)-c2cc(-c4cc(C(=O)Nc5ccc(OC(F)(F)Cl)cc5)c(N)nc4N4CC[C@@H](F)C4)cnc2C3)n1 [T-133, (R)-2-amino-N-(4-(chlorodifluoromethoxy)phenyl)-5-(2-(4-cvanopyrimidin-2-yl)-2,4-dihydropyrazolo[3',4':3,4]cyclopenta[1,2-b]pyridin-7-yl)-6-(3-fluoropyrrolidin-1-yl)nicotinamide]	≤ 5	> 1000	≤ 5	≤ 5
CC(=O)NC1CCC2c3cc(C(=O)Nc4ccc(OC(F)(F)Cl)cc4)cc(-c4cnccn4)c3N(C(C)C)C12 (racemic) [T-12, 3-acetamido-N-(4-(chlorodifluoromethoxy)phenyl)-4-isopropyl-5-(pyrazin-2-yl)-1,2,3,3a,4,8b-hexahydrocyclopenta[b]indole-7-carboxamide]	5 to 50	> 1000	5 to 50	50 to 1000
C[C@@H]1CN(C)Cc2nc3cc(C(=O)Nc4ccc(OC(F)(F)Cl)cc4)cc(-c4cnc5c(c4)C(=O)N(C4CC4)C5)c3n21 [T-36, (R)-N-(4-(chlorodifluoromethoxy)phenyl)-6-(6-cyclopropyl-5-oxo-6,7-dihydro-5H-pyrrolo[3,4-b]pyridin-3-yl)-2,4-dimethyl-1,2,3,4-tetrahydrobenzo[4,5]imidazo[1,2-a]pyrazine-8-carboxamide]	≤ 5	> 1000	≤ 5	> 1000
C[C@@H]1COCc2nc3cc(C(=O)Nc4ccc(OC(F)(F)Cl)cc4)cc(-c4cnc5c(c4)-c4nn(-c6ncc(-c7ccccc7)cn6)cc4C5)c3n21 [T-80, (R)-N-(4-(chlorodifluoromethoxy)phenyl)-4-methyl-6-(2-(5-phenylpyrimidin-2-yl)-2,4-dihydropyrazolo[3',4':3,4]cyclopenta[1,2-b]pyridin-7-yl)-3,4-dihydro-1H-benzo[4,5]imidazo[2,1-c][1,4]oxazine-8-carboxamide]	≤ 5	> 1000	≤ 5	≤ 5
C[C@@H]1COCc2nc3cc(C(=O)Nc4ccc(OC(F)(F)Cl)cc4)cc(-c4cnc5c(c4)-c4nn(-c6ncc7cccnc7n6)cc4C5)c3n21 [T-86, (R)-N-(4-(chlorodifluoromethoxy)phenyl)-4-methyl-6-(2-(pyrido[2,3-d]pyrimidin-2-yl)-2,4-dihydropyrazolo[3',4':3,4]cyclopenta[1,2-b]pyridin-7-yl)-3,4-dihydro-1H-benzo[4,5]imidazo[2,1-c][1,4]oxazine-8-carboxamide]	≤ 5	> 1000	≤ 5	≤ 5
C[C@@H]1COCc2nc3cc(C(=O)Nc4ccc(OC(F)(F)Cl)cc4)cc(-c4cnc5c(c4)-c4nn(CCOC(C)(C)C)cc4C5)c3n21 [T-56-A, (R)-6-(2-(2-(tert-butoxy)ethyl)-2,4-dihydropyrazolo[3',4':3,4]cyclopenta[1,2-b]pyridin-7-yl)-N-(4-(chlorodifluoromethoxy)phenyl)-4-methyl-3,4-dihydro-1H-benzo[4,5]imidazo[2,1-c][1,4]oxazine-8-carboxamide]	5 to 50	> 1000	50 to 1000	> 1000

Second part, led by results:

IC50 (K562 cells) [nM]	Compound	IC50 (Ba/F3 parental cells) [nM]	IC50 (Ba/F3 BCR-ABL1 WT) [nM]	IC50 (Ba/F3 BCR-ABL1 T315I) [nM]
5 to 50	O=C(Nc1ccc(OC(F)(F)Cl)cc1)c1cnc(N2CC[C@@H](F)C2)c(-c2cnc3c(c2)-c2c(cnn2-c2ncc(F)cn2)C3F)c1 (stereo partly drawn) [T-131, N-(4-(chlorodifluoromethoxy)phenyl)-5-(4-fluoro-1-(5-fluoropyrimidin-2-yl)-1,4-dihydrepyrazolo[3',4':3,4]cyclopenta[1,2-b]pyridin-7-yl)-6-((R)-3-fluoropyrrolidin-1-yl)nicotinamide]	> 1000	50 to 1000	50 to 1000
≤ 5	O=C(Nc1ccc(OC(F)(F)Cl)cc1)c1cc2c(c(-c3cnc4c(c3)-c3nn(-c5ncc(F)cn5)cc3C4)c1)C1(CCCCC1)C(=O)N2 [T-127, N-(4-(chlorodifluoromethoxy)phenyl)-4'-(2-(5-fluoropyrimidin-2-yl)-2,4-dihydropyrazolo[3',4':3,4]cyclopenta[1,2-b]pyridin-7-vl)-2'-oxospiro[cyclohexane-1,3'-indoline]-6'-carboxamide]	> 1000	≤ 5	≤ 5
≤ 5	C[C@@H]1COCc2nc3cc(C(=O)Nc4ccc(OC(F)(F)Cl)cc4)cc(-c4cnc5c(c4)-c4nn(-c6nccc(-c7cncc(C#N)c7)n6)cc4C5)c3n21 [T-98, (R)-N-(4-(chlorodifluoromethoxy)phenyl)-6-(2-(4-(5-cyanopyridin-3-yl)pyrimidin-2-yl)-2,4-dihydropyrazolo[3',4':3,4]cyclopenta[1,2-b]pyridin-7-yl)-4-methyl-3,4-dihydro-1H-benzo[4,5]imidazo[2,1-c][1,4]oxazine-8-carboxamide]	> 1000	≤ 5	≤ 5
≤ 5	O=C(Nc1ccc(OC(F)(F)Cl)cc1)c1cc2c(c(-c3cnc4c(c3)-c3n[nH]cc3C4)c1)C1(CCCCC1)C(=O)N2 [T-125, N-(4-(chlorodifluoromethoxy)phenyl)-4'-(2,4-dihydropyrazolo[3',4':3,4]cyclopenta[1,2-b]pyridin-7-yl)-2'-oxospiro[cyclohexane-1,3'-indoline]-6'-carboxamide]	> 1000	≤ 5	5 to 50
≤ 5	C[C@@H]1COCc2nc3cc(C(=O)Nc4ccc(OC(F)(F)Cl)cc4)cc(-c4cnc5c(c4)-c4nn(-c6nccn6C)cc4C5)c3n21 [T-102, (R)-N-(4-(chlorodifluoromethoxy)phenyl)-4-methyl-6-(2-(1-methyl-1H-imidazol-2-yl)-2,4-dihydropyrazolo[3',4':3,4]cyclopenta[1,2-b]pyridin-7-yl)-3,4-dihydro-1H-benzo[4,5]imidazo[2,1-c][1,4]oxazine-8-carboxamide]	> 1000	≤ 5	≤ 5
